Results as given in patent US12029715B2, “Precursor compounds for providing retinoids of the vitamin A5 pathway and uses thereof” (UNIVERSITY OF DEBRECEN, priority 2015, dated 2024).
“Also recorded” adds a separate entry of the source.

Test system: Rbp1−/− and Rxrγ−/− mice
Experiment: Y-maze spontaneous alternation
Assay type: in vivo, mouse
Settings: 5-6 hours prior to testing
Description: The Y-maze apparatus and the procedure were as previously described (Wietrzych et al., 2005). Briefly, each mouse was placed at the end of one arm and allowed to explore freely the apparatus for 5 min, with the experimenter out of the animal's sight. Spontaneous alternation performance (SAP) was assessed visually by scoring the pattern of entries into each arm and expressed as a percentage of total number of entries, discounting the first two visits. Total entries were scored as an index of ambulatory activity in the Y-maze, but none of tested mice had to be excluded due to low locomotor performance (score below 9 entries).
Vehicle treatments consisted of 3% ethanol and 3% DMSO solution in sunflower oil. Treatments were administered by intraperitoneal injections at volume/weight ratio 3 ml/kg between 8-10 am and 5-6 h before the test as previously validated (Wietrzych-Schindler M, 2011).

CC1(C)CCC(C)(C)c2cc(C3(c4ccc(C(=O)O)cc4)OCCO3)ccc21 [UVI2108, reference compound]
working memory in spontaneous alternation in the Y-maze (Rbp1−/− mice, ATRA 5 mg/kg, UVI2108 1 mg/kg, MA 5 mg/kg, DHA 1 mg/kg, TTNPB 5 mg/kg): normalised; also recorded: pro-mnemonic effects | working memory in spontaneous alternation in the Y-maze (Rxrγ−/− mice, same doses): not
